In ChEMBL document CHEMBL6078640, “Trivalent oleanolic acid-glucose conjugates: Synthesis and efficacy against Influenza A virus” (Eur J Med Chem, 2024):
Calls of active or inactive are those of the source. The calls are words filed in the database; no cut-off is given here.

Key:
Influenza A virus [1] = experiment: Antiviral activity against influenza A virus A/WSN/33 (H1N1) in MDCK cells assessed as reduction in M2 expression preincubated with cells at 24 hrs followed by compound addition and measured at 0 to 2 hrs post infection by time of addition assay; type: functional, organism-based; settings: time 0-2 hrs
Influenza A virus [2] = experiment: Antiviral activity against Influenza A virus A/WSN/33(H1N1) infected in female BALB/c kunming mouse assessed as reduction in immune cell infiltration at 12.5 mg/kg/day, administered intranasally once per day for 7 days starting from 24 hrs post-viral infection and measured daily; type: functional, organism-based; settings: time 7.0 day
Influenza A virus [3] = experiment: Antiviral activity against Influenza A virus A/WSN/33(H1N1) infected in female BALB/c kunming mouse assessed as reduction in severe pneumonia at 12.5 mg/kg/day, administered intranasally once per day for 7 days starting from 24 hrs post-viral infection and measured daily; type: functional, organism-based; settings: time 7.0 day
Influenza A virus [4] = experiment: Antiviral activity against Influenza A virus A/WSN/33(H1N1) infected in female BALB/c kunming mouse assessed as reduction in lung index at 6.25 mg/kg/day, administered intranasally once per day for 7 days starting from 24 hrs post-viral infection and measured daily; type: functional; settings: time 7 day
Influenza A virus [5] = experiment: Antiviral activity against Influenza A virus A/WSN/33(H1N1) infected in female BALB/c kunming mouse assessed as delayed the median time of animal death at 0.125 mg/kg, administered intranasally once per day for 7 days starting from 24 hrs post-viral infection and measured daily; type: functional, organism-based; settings: time 7.0 day
[6] = Toxicity in female BALB/c kunming mouse infected with Influenza A virus A/WSN/33(H1N1) assessed as reduction in liver injury at 6.25 to 12.5 mg/kg/day, administered intranasally once per day for 7 days starting from 24 hrs post-viral infection by H and E staining based analysis; type: organism-based; settings: in vivo, inhaled_or_intranasal, 168 h, dose 6.25-12.5 mg/kg/day, time 7 day
Influenza A virus [7] = experiment: Antiviral activity against Influenza A virus A/WSN/33(H1N1) infected in female BALB/c kunming mouse assessed as improvement in body weight administered intranasally once per day for 7 days and measured daily; type: functional, organism-based; settings: dose 6.25-12.5 mg/kg/day, time 7.0 day
Influenza A virus [8] = experiment: Antiviral activity against influenza A virus A/WSN/33 (H1N1) in MDCK cells assessed as reduction in NP mRNA level preincubated with cells at 24 hrs followed by compound addition and measured at 0 to 2 hrs post infection by RT-qPCR analysis; type: functional, organism-based; settings: time 0-2 hrs
Influenza B virus = experiment: Antiviral activity against Influenza B virus […] (B/Darwin/58/2019/Yamagata); type: functional, organism-based
[9] = Cytotoxicity against dog MDCK cells assessed as reduction in cell viability incubated for 40 hrs by celltiter-glo assay; type: toxicity, cell-based, Canis lupus familiaris
Influenza A virus [10] = experiment: Antiviral activity against influenza A virus A/WSN/33(H1N1) infected in MDCK cells assessed as inhibition of viral-induced cytopathic effect pretreated with cells followed by viral infection and measured after 40 hrs by fluorescence based microplate reader analysis; type: functional, organism-based
[11] = Toxicity in female BALB/c kunming mouse infected with Influenza A virus A/WSN/33(H1N1) assessed as reduction in kidney injury at 6.25 to 12.5 mg/kg/day, administered intranasally once per day for 7 days starting from 24 hrs post-viral infection by H and E staining based analysis; type: organism-based; settings: in vivo, inhaled_or_intranasal, 168 h, dose 6.25-12.5 mg/kg/day, time 7 day
Influenza A virus [12] = experiment: Antiviral activity against Influenza A virus A/WSN/33(H1N1) infected in female BALB/c kunming mouse assessed as protection of mouse at 0.25 mg/kg, administered intranasally once per day for 7 days starting from 24 hrs post-viral infection and measured daily; type: functional, organism-based; settings: time 7.0 day
Influenza A virus [13] = experiment: Antiviral activity against Influenza A virus H1N1 (A/Guangdong maonan/6WL197/2020); type: functional, organism-based
Influenza A virus [14] = experiment: Antiviral activity against influenza A virus A/WSN/33 (H1N1) in MDCK cells assessed as reduction in NP mRNA level preincubated with cells at 24 hrs followed by compound addition and measured at 0 to 10 hrs post infection by RT-qPCR analysis; type: functional, organism-based; settings: time 0-10 hrs
Influenza A virus [15] = experiment: Antiviral activity against influenza A virus A/WSN/33 (H1N1) in MDCK cells assessed as reduction in NP expression preincubated with cells at 24 hrs followed by compound addition and measured at 0 to 10 hrs post infection by time of addition assay; type: functional, organism-based; settings: time 0-10 hrs
Influenza A virus [16] = experiment: Antiviral activity against influenza A virus A/WSN/33 (H1N1) in MDCK cells assessed as reduction in M mRNA level preincubated with cells at 24 hrs followed by compound addition and measured at 0 to 2 hrs post infection by RT-qPCR analysis; type: functional, organism-based; settings: time 0-2 hrs
MDCK [17] = experiment: Cytotoxicity against dog MDCK cells assessed as reduction in cell viability at 100 uM incubated for 40 hrs by celltiter-glo assay; type: toxicity, cell-based, Canis lupus familiaris
Influenza A virus [18] = experiment: Antiviral activity against Influenza A virus A/WSN/33(H1N1) infected in female BALB/c kunming mouse assessed as reduction in lung index at 12.5 mg/kg/day, administered intranasally once per day for 7 days starting from 24 hrs post-viral infection and measured daily; type: functional; settings: time 7 day
Influenza A virus [19] = experiment: Antiviral activity against Influenza A virus H5N1 (A/Indonesia/5/2005 (IBCDC-RG2)); type: functional, organism-based
Influenza A virus [20] = experiment: Antiviral activity against Influenza A virus H1N1 infected in MDCK cells assessed as inhibition of viral growth at 100 uM relative to control; type: functional
MDCK [21] = experiment: Inhibition of Hemagglutinin in Influenza A virus H1N1 assessed as inhibition of virus-induced aggregation of chicken erythrocytes pretreated with virus followed by chicken RBC addition and measured after 30 mins by Hemagglutinin inhibition assay; type: cell-based; settings: dose 0-1.94 µM
Influenza A virus [22] = experiment: Antiviral activity against influenza A virus A/WSN/33 (H1N1) in MDCK cells assessed as reduction in M2 expression preincubated with cells at 24 hrs followed by compound addition and measured at 0 to 10 hrs post infection by time of addition assay; type: functional, organism-based; settings: time 0-10 hrs
[23] = Selectivity index, ratio of CC50 for dog MDCK cells to IC50 for influenza A virus A/WSN/33(H1N1) infected in MDCK cells; type: toxicity, cell-based; settings: read-out: Selectivity Index
Influenza A virus [24] = experiment: Antiviral activity against influenza A virus A/WSN/33 (H1N1) in MDCK cells assessed as reduction in NP expression preincubated with cells at 24 hrs followed by compound addition and measured at 0 to 2 hrs post infection by time of addition assay; type: functional, organism-based; settings: time 0-2 hrs
Influenza A virus [25] = experiment: Antiviral activity against Influenza A virus H1N1 infected in MDCK cells assessed as reduction in cytopathic effect at 100 uM pretreated with cells followed by viral infection and measured after 40 hrs by fluorescence based microplate reader analysis; type: functional, organism-based
Influenza A virus [26] = experiment: Antiviral activity against influenza A virus A/WSN/33 (H1N1) in MDCK cells assessed as reduction in M mRNA level preincubated with cells at 24 hrs followed by compound addition and measured at 0 to 10 hrs post infection by RT-qPCR analysis; type: functional, organism-based; settings: time 0-10 hrs

## CC1(C)CC[C@]2(C(=O)NCc3cn([C@@H]4O[C@H](CO)[C@@H](O)[C@H](O)[C@H]4O)nn3)CC[C@]3(C)C(=CC[C@@H]4[C@@]5(C)CC[C@H](OC(=O)NCc6cn(Cc7cc(Cn8cc(CNC(=O)O[C@H]9CC[C@]%10(C)[C@H]%11CC=C%12[C@@H]%13CC(C)(C)CC[C@]%13(C(=O)NCc%13cn([C@@H]%14O[C@H](CO)[C@@H](O)[C@H](O)[C@H]%14O)nn%13)CC[C@@]%12(C)[C@]%11(C)CC[C@H]%10C9(C)C)nn8)cc(Cn8cc(CNC(=O)O[C@H]9CC[C@]%10(C)[C@H]%11CC=C%12[C@@H]%13CC(C)(C)CC[C@]%13(C(=O)NCc%13cn([C@@H]%14O[C@H](CO)[C@@H](O)[C@H](O)[C@H]%14O)nn%13)CC[C@@]%12(C)[C@]%11(C)CC[C@H]%10C9(C)C)nn8)c7)nn6)C(C)(C)[C@@H]5CC[C@]43C)[C@@H]2C1
Influenza A virus [1]
  Activity: Active; Compound Exerts Antiviral Effect At Early Stage Of Infection
Influenza A virus [2]
  Activity: Active
Influenza A virus [3]
  Activity: Active
Influenza A virus [4]
  Activity_index: 1.7
Influenza A virus [5]
  Activity: Active
[6]
  Activity: Non-toxic
Influenza A virus [7]
  Activity: Dose-dependent-effect
Influenza A virus [8]
  Activity: Active; Compound Exerts Antiviral Effect At Early Stage Of Infection
Influenza B virus
  IC50: 2.39 µM
[9]
  CC50 at 40 h: > 100 µM
Influenza A virus [10]
  IC50: 0.47 µM
[11]
  Activity: Non-toxic
Influenza A virus [12]
  Activity: Active; Protection In 2 Out Of 4 Mouse Was Observed
Influenza A virus [13]
  IC50: 5.24 µM
Influenza A virus [14]
  Activity: Active; Compound Exerts Antiviral Effect At Early Stage Of Infection
Influenza A virus [15]
  Activity: Active; Compound Exerts Antiviral Effect At Early Stage Of Infection
Influenza A virus [16]
  Activity: Active; Compound Exerts Antiviral Effect At Early Stage Of Infection
MDCK [17]
  Activity: Non-toxic
Influenza A virus [18]
  Activity_index: 1.4
Influenza A virus [19]
  Activity: inactive
Influenza A virus [20]
  inhibition at 100 µM: > 75%
MDCK [21]
  inhibition: Dose-dependent-effect
Influenza A virus [22]
  Activity: Active; Compound Exerts Antiviral Effect At Early Stage Of Infection
[23]
  selectivity ratio: > 213
Influenza A virus [24]
  Activity: Active; Compound Exerts Antiviral Effect At Early Stage Of Infection
Influenza A virus [25]
  Activity: Active
Influenza A virus [26]
  Activity: Active; Compound Exerts Antiviral Effect At Early Stage Of Infection

## CC1(C)CC[C@]2(C(=O)NCc3cn([C@@H]4O[C@H](CO)[C@@H](O)[C@H](O)[C@H]4O)nn3)CC[C@]3(C)C(=CC[C@@H]4[C@@]5(C)CC[C@H](OC(=O)NCCCc6cn(Cc7cc(Cn8cc(CCCNC(=O)O[C@H]9CC[C@]%10(C)[C@H]%11CC=C%12[C@@H]%13CC(C)(C)CC[C@]%13(C(=O)NCc%13cn([C@@H]%14O[C@H](CO)[C@@H](O)[C@H](O)[C@H]%14O)nn%13)CC[C@@]%12(C)[C@]%11(C)CC[C@H]%10C9(C)C)nn8)cc(Cn8cc(CCCNC(=O)O[C@H]9CC[C@]%10(C)[C@H]%11CC=C%12[C@@H]%13CC(C)(C)CC[C@]%13(C(=O)NCc%13cn([C@@H]%14O[C@H](CO)[C@@H](O)[C@H](O)[C@H]%14O)nn%13)CC[C@@]%12(C)[C@]%11(C)CC[C@H]%10C9(C)C)nn8)c7)nn6)C(C)(C)[C@@H]5CC[C@]43C)[C@@H]2C1
[9]
  CC50 at 40 h: > 100 µM
Influenza A virus [10]
  IC50: 43.9 µM
MDCK [17]
  Activity: Non-toxic
Influenza A virus [20]
  inhibition at 100 µM: > 75%
[23]
  selectivity ratio: > 2.28
